Values of other authors as cited in patent publication US20160136091A1, “Orally Disintegrating Tablet” (SANWA KAGAKU KENKYUSHO CO., LTD., priority 2013, published 2016).

Conditions: 20+5° C.

Amount of water required to dissolve 1 g	SMILES
less than 10 mL	OCCN1C[C@H](O)[C@@H](O)[C@H](O)[C@H]1CO [miglitol]
less than 1,000 mL	Cn1c(=O)c2[nH]cnc2n(C)c1=O [theophylline]
